What was measured:
CCRF-CEM [1] = experiment: Concentration required to reduce 50% of the number of CEM/O cells in the HIV-2 infected cell cultures.; format: functional, cell-based; settings: Homo sapiens
CCRF-CEM [2] = experiment: Concentration required to reduce 50% of the number of CEM/O cells in the HIV-1 infected cell cultures.; format: functional, cell-based; settings: Homo sapiens
[3] = Selectivity index in the HIV-1 infected cell cultures.; format: functional
CCRF-CEM [4] = experiment: Concentration required to reduce 50% of the number of CEM/O cells in the mock infected cell cultures.; format: functional; settings: Homo sapiens
CEM-TK(+) = experiment: Concentration required to reduce 50% of the number of CEM/TK cells in the HIV-2 infected cell cultures.; format: functional, cell-based; settings: Homo sapiens

Row | Structure (SMILES) | EC50 (CCRF-CEM [1]) | EC50 (CCRF-CEM [2]) | EC50 (CEM-TK(+)) | SI [3] | CC50 (CCRF-CEM [4])
1 | Cc1cn(C2CC(N=[N+]=[N-])C(COP(=O)(O)OCCOc3cccc4ccccc34)O2)c(=O)[nH]c1=O (stereo not drawn) | 28 nM | 13 nM | > 125000 nM | >9615 | > 125000 nM
2 | CCCCCCCCCCCCOC[C@@H](C)OP(=O)(O)OCC1OC(n2cc(C)c(=O)[nH]c2=O)CC1N=[N+]=[N-] (stereo partly drawn) | 2670 nM | 2170 nM | > 50000 nM | 44 | 95900 nM
3 | Cc1cn(C2CC(N=[N+]=[N-])C(COP(=O)(O)OCCOc3ccc4ccccc4c3)O2)c(=O)[nH]c1=O (stereo not drawn) | 20 nM | 15 nM | > 125000 nM | >8333 | > 125000 nM
4 | Cc1cn(C2CC(N=[N+]=[N-])C(COP(=O)(O)OCCOc3ccccc3)O2)c(=O)[nH]c1=O (stereo not drawn) | 18 nM | 20 nM | > 125000 nM | >6250 | > 125000 nM
5 | CCCCCCCCCCCCO[C@H](C)COP(=O)(O)OCC1O[C@@H](n2cc(C)c(=O)[nH]c2=O)C[C@@H]1N=[N+]=[N-] (single isomer, unassigned) | 500 nM | 500 nM | > 50000 nM | 186 | 93000 nM
6 | Cc1cn([C@H]2C[C@H](N=[N+]=[N-])[C@@H](CO)O2)c(=O)[nH]c1=O [ZIDOVUDINE] | – | – | > 100000 nM | >16666 | > 100000 nM

The next lines start with results.

Row | EC50 (CCRF-CEM [1]) | EC50 (CCRF-CEM [2]) | EC50 (CEM-TK(+)) | Structure (SMILES) | SI [3] | CC50 (CCRF-CEM [4])
7 | 133 nM | 115 nM | > 50000 nM | CCCCCCCCCCCCOCCOP(=O)(O)OCC1OC(n2cc(C)c(=O)[nH]c2=O)CC1N=[N+]=[N-] (stereo not drawn) | 669 | 76900 nM
8 | 260 nM | 200 nM | > 50000 nM | CCCCCCCCCCCCOC[C@H](C)OP(=O)(O)OCC1OC(n2cc(C)c(=O)[nH]c2=O)CC1N=[N+]=[N-] (stereo partly drawn) | 440 | 88000 nM
9 | 350 nM | 320 nM | > 50000 nM | CCCCCCCCCCCCO[C@@H](C)COP(=O)(O)OC[C@H]1O[C@@H](n2cc(C)c(=O)[nH]c2=O)C[C@@H]1N=[N+]=[N-] | 295 | 94500 nM
